Measurements from patent US20220106289A1, “NLRP3 INHIBITORS” (INFLAZOME LIMITED, priority 2018, published 2022).
pIC50: −log10 of the molar value. Counter-ions that a name gives are not always drawn.

What was measured:
NLRP3 [1] = biological target: T1, NLRP3 (Homo sapiens, UniProt Q96P20); assay: THP-1 cells pyroptosis assay (LPS + nigericin, resazurin read-out); assay type: cell-based; set-up: Seed THP-1 cells (25,000 cells/well) containing 1.0 μg/ml LPS; host or cells: THP-1 cells; conditions: NLRP3 inhibitory activity, 1 μg/ml LPS, 5 μM nigericin
T1 sequence (Q96P20 whole entry): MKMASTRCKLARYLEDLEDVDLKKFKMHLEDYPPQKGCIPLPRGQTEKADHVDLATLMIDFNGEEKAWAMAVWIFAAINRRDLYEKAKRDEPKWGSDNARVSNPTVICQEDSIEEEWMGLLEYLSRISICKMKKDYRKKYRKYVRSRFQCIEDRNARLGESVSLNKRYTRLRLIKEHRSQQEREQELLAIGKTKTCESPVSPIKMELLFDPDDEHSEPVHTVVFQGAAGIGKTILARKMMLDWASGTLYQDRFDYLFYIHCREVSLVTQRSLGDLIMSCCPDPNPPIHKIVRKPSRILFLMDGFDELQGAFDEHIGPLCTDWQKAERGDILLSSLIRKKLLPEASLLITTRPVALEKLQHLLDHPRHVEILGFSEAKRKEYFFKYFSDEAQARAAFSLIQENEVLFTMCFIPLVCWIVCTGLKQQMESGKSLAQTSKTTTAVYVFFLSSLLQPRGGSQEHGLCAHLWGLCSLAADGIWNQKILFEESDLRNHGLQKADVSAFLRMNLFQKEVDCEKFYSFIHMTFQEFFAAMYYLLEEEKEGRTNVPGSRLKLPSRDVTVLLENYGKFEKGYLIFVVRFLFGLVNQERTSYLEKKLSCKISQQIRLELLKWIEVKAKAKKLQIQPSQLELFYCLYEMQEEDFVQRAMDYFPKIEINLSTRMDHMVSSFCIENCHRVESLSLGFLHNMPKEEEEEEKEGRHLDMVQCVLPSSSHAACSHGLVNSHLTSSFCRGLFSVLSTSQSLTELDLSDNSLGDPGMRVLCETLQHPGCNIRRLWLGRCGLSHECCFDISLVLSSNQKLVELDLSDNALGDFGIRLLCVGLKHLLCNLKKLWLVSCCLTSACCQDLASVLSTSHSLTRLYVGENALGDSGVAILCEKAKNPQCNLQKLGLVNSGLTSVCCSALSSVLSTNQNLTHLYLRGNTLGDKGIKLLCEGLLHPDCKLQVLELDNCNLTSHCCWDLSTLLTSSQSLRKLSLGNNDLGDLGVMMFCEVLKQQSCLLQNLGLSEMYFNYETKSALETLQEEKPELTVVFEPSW
Method: The cells were routinely passaged and grown to confluency (˜10^6 cells/ml). On the day of the experiment, THP-1 cells were harvested and resuspended into RPMI medium (without FBS). The cells were then counted and viability (>90%) checked by Trypan blue (Sigma #T8154). […] To this diluted cell solution was added LPS (Sigma #L4524) to give a 1 μg/ml Final Assay Concentration (FAC). 40 μl of the final preparation was aliquoted into each well of a 96-well plate. The plate thus prepared was used for compound screening. The following method step-by-step assay was followed for compound screening. • 1. […] Incubate for 3 hrs at 37° C., 5% CO2 • 4. Add 5 μl nigericin (Sigma #N7143) (FAC 5 μM) to all wells • 5. Incubate for 1 hr at 37° C., 5% CO2 • 6. At the end of the incubation period, spin plates at 300×g for 3 mins and remove supernatant • 7. Then add 50 μl of resazurin (Sigma #R7017) (FAC 100 μM resazurin in RPMI medium without FBS) and incubate plates for a further 1-2 hrs at 37° C. and 5% CO2 • 8.

NLRP3 [2] = biological target: T1, NLRP3; assay: Human whole blood IL-1β release assay (LPS + nigericin, AlphaLisa); assay type: cell-based; set-up: Human whole blood in Li-heparin tubes was obtained from healthy donors; from tissue; host or cells: human whole blood from healthy donors; conditions: NLRP3 inhibitory activity, 1 μg/ml LPS, 10 μM nigericin, read-out: HWB IC50
Method: For systemic delivery, the ability to inhibit NLRP3 when the compounds are present within the bloodstream is of great importance. For this reason, the NLRP3 inhibitory activity of a number of compounds in human whole blood was investigated in accordance with the following protocol. Human whole blood in Li-heparin tubes was obtained from healthy donors from a volunteer donor panel. • 1. […] Incubate for 3 hrs at 37° C., 5% CO2 • 4. Add 10 μl nigericin (Sigma #N7143) (10 μM FAC) to all wells • 5. Incubate for 1 hr at 37° C., 5% CO2 • 6. At the end of the incubation period, spin plates at 300×g for 5 mins to pellet cells and remove 20 μl of supernatant and add to 96-well v-bottom plates for IL-1β analysis (note: these plates containing the supernatants can be stored at -80° C. to be analysed at a later date) • 7. IL-1β was measured according to the manufacturer protocol (Perkin Elmer-AlphaLisa IL-1 Kit A[…]-5000) • 8.

SMILES: CC(C)n1ncc(S(=O)(=O)NC(=O)Nc2c3c(cc4c2CCC4)CCC3)n1 [Example 48, N-((1,2,3,5,6,7-Hexahydro-s-indacen-4-yl)carbamoyl)-2-isopropyl-2H-1,2,3-triazole-4-sulfonamide]
- pIC50 (NLRP3 [1]): > 6.60
- pIC50 (NLRP3 [2]): 5.30 to 6.00

SMILES: CC(C)n1cc(S(=O)(=O)NC(=O)Nc2c3c(c(Br)c4c2CCC4)CCC3)cn1 [Example 36, N-((8-Bromo-1,2,3,5,6,7-hexahydro-s-indacen-4-yl)carbamoyl)-1-isopropyl-1H-pyrazole-4-sulfonamide]
- pIC50 (NLRP3 [1]): > 6.60
- pIC50 (NLRP3 [2]): 5.00 to 5.30

SMILES: O=C(Nc1c2c(cc3c1CCC3)CCC2)NS(=O)(=O)c1cc[nH]n1 [Example 13, N-((1,2,3,5,6,7-Hexahydro-s-indacen-4-yl)carbamoyl)-1H-pyrazole-3-sulfonamide, potassium salt]
- pIC50 (NLRP3 [1]): 5.30 to 6.00
- pIC50 (NLRP3 [2]): < 5.00

SMILES: CN(C)CC1(n2ccc(S(=O)(=O)NC(=O)Nc3c4c(cc5c3CCC5)CCC4)n2)CCC1 [Example 60, 1-(1-((Dimethylamino)methyl)cyclobutyl)-N-((1,2,3,5,6,7-hexahydro-s-indacen-4-yl)carbamoyl)-1H-pyrazole-3-sulfonamide]
- pIC50 (NLRP3 [1]): > 6.60
- pIC50 (NLRP3 [2]): > 6.60

SMILES: CC(C)c1cc(Cl)cc(C(C)C)c1NC(=O)NS(=O)(=O)c1cnn(CC(F)(F)F)c1 [Example 40, N-((4-Chloro-2,6-diisopropylphenyl)carbamoyl)-1-(2,2,2-trifluoroethyl)-1H-pyrazole-4-sulfonamide]
- pIC50 (NLRP3 [1]): 6.30 to 6.60
- pIC50 (NLRP3 [2]): 5.30 to 6.00

SMILES: O=C(Nc1c2c(cc3c1CCC3)CCC2)NS(=O)(=O)c1ccn(CC(F)F)n1 [Example 63, 1-(2,2-Difluoroethyl)-N-((1,2,3,5,6,7-hexahydro-s-indacen-4-yl)carbamoyl)-1H-pyrazole-3-sulfonamide, sodium salt]
- pIC50 (NLRP3 [1]): > 6.60
- pIC50 (NLRP3 [2]): 5.30 to 6.00

SMILES: CC(C)c1cccc(C(C)C)c1NC(=O)NS(=O)(=O)c1cnn(C(C)C)c1 [Example 69, N-((2,6-Diisopropylphenyl)carbamoyl)-1-isopropyl-1H-pyrazole-4-sulfonamide]
- pIC50 (NLRP3 [1]): 6.00 to 6.30
- pIC50 (NLRP3 [2]): 5.30 to 6.00

SMILES: CN(C)Cc1ccc(S(=O)(=O)NC(=O)Nc2c3c(cc4c2CCC4)CCC3)cc1 [Example 66, 4-((Dimethylamino)methyl)-N-((1,2,3,5,6,7-hexahydro-s-indacen-4-yl)carbamoyl)benzenesulfonamide, sodium salt]
- pIC50 (NLRP3 [1]): > 6.60
- pIC50 (NLRP3 [2]): 6.30 to 6.60

SMILES: O=C(Nc1c2c(cc3c1CCC3)CCC2)NS(=O)(=O)c1ccn(CC(F)(F)F)n1 [Example 42, N-((1,2,3,5,6,7-Hexahydro-s-indacen-4-yl)carbamoyl)-1-(2,2,2-trifluoroethyl)-1H-pyrazole-3-sulfonamide]
- pIC50 (NLRP3 [1]): > 6.60
- pIC50 (NLRP3 [2]): 5.30 to 6.00

SMILES: [2H]C([2H])([2H])N(CCn1ccc(S(=O)(=O)NC(=O)Nc2c3c(cc4c2CCC4)CCC3)n1)C([2H])([2H])[2H] [Example 12, 1-(2-(Bis(methyl-d3)amino)ethyl)-N-((1,2,3,5,6,7-hexahydro-s-indacen-4-yl)carbamoyl)-1H-pyrazole-3-sulfonamide, potassium salt]
- pIC50 (NLRP3 [1]): > 6.60
- pIC50 (NLRP3 [2]): 6.00 to 6.30

SMILES: CC(C)n1nc(S(=O)(=O)NC(=O)Nc2c3c(cc4c2CCC4)CCC3)cc1F [Example 62, 5-Fluoro-N-((1,2,3,5,6,7-hexahydro-s-indacen-4-yl)carbamoyl)-1-isopropyl-1H-pyrazole-3-sulfonamide, sodium salt]
- pIC50 (NLRP3 [1]): > 6.60
- pIC50 (NLRP3 [2]): < 5.00

SMILES: COC(C)c1cc(S(=O)(=O)NC(=O)Nc2c3c(cc4c2CCC4)CCC3)nn1C (stereo not shown) [Example 53, N-((1,2,3,5,6,7-Hexahydro-s-indacen-4-yl)carbamoyl)-5-(1-methoxyethyl)-1-methyl-1H-pyrazole-3-sulfonamide]
- pIC50 (NLRP3 [1]): > 6.60
- pIC50 (NLRP3 [2]): 6.00 to 6.30

SMILES: CC(C)c1cc(F)cc2c1C(C(=O)NS(=O)(=O)c1ccn(C3CC3)n1)CCC2(C)C (stereo not shown) [Example 6, N-((1-Cyclopropyl-1H-pyrazol-3-yl)sulfonyl)-6-fluoro-8-isopropyl-4,4-dimethyl-1,2,3,4-tetrahydronaphthalene-1-carboxamide]
- pIC50 (NLRP3 [1]): 5.30 to 6.00
- pIC50 (NLRP3 [2]): 5.00 to 5.30

SMILES: CC(C)n1ccc(S(=O)(=O)NC(=O)Nc2c3c(cc4c2CCC4=O)CCC3)n1 [Example 31, 1-isopropyl-N-((1-oxo-1,2,3,5,6,7-hexahydro-s-indacen-4-yl)carbamoyl)-1H-pyrazole-3-sulfonamide, sodium salt]
- pIC50 (NLRP3 [1]): 5.30 to 6.00
- pIC50 (NLRP3 [2]): 5.00 to 5.30

SMILES: CC(C)n1ccc(S(=O)(=O)NC(=O)Nc2c3c(cc4c2CCC4O)CCC3)n1 (stereo not shown) [Example 21, N-((1-Hydroxy-1,2,3,5,6,7-hexahydro-s-indacen-4-yl)carbamoyl)-1-isopropyl-1H-pyrazole-3-sulfonamide]
- pIC50 (NLRP3 [1]): 5.00 to 5.30
- pIC50 (NLRP3 [2]): 5.00 to 5.30

SMILES: CCn1cc(S(=O)(=O)NC(=O)Nc2c3c(cc4c2CCC4)CCC3)nn1 [Example 19, 1-Ethyl-N-((1,2,3,5,6,7-hexahydro-s-indacen-4-yl)carbamoyl)-1H-1,2,3-triazole-4-sulfonamide, potassium salt]
- pIC50 (NLRP3 [1]): 6.30 to 6.60
- pIC50 (NLRP3 [2]): 6.00 to 6.30

SMILES: CC(C)n1ccc(S(=N)(=O)NC(=O)Cc2c3c(cc4c2CCC4)CCC3)n1 (stereo not shown) [Example 24, 2-(1,2,3,5,6,7-Hexahydro-s-indacen-4-yl)-N-(1-isopropyl-1H-pyrazole-3-sulfonimidoyl)acetamide]
- pIC50 (NLRP3 [1]): 5.30 to 6.00
- pIC50 (NLRP3 [2]): < 5.00

SMILES: Cc1cc(CN(C)C)cc(S(=O)(=O)NC(=O)Nc2c3c(cc4c2CCC4)CCC3)c1 [Example 57, 3-((Dimethylamino)methyl)-N-((1,2,3,5,6,7-hexahydro-s-indacen-4-yl)carbamoyl)-5-methylbenzenesulfonamide, sodium salt]
- pIC50 (NLRP3 [1]): > 6.60
- pIC50 (NLRP3 [2]): 5.30 to 6.00

SMILES: CC(C)(CN1CCCC1)n1ccc(S(=O)(=O)NC(=O)Nc2c3c(cc4c2CCC4)CCC3)n1 [Example 65, N-((1,2,3,5,6,7-Hexahydro-s-indacen-4-yl)carbamoyl)-1-(2-methyl-1-(pyrrolidin-1-yl)propan-2-yl)-1H-pyrazole-3-sulfonamide, sodium salt]
- pIC50 (NLRP3 [1]): > 6.60
- pIC50 (NLRP3 [2]): 6.30 to 6.60

SMILES: CC(C)n1cc(F)c(S(=O)(=O)NC(=O)Nc2c3c(cc4c2CCC4)CCC3)n1 [Example 55, 4-Fluoro-N-((1,2,3,5,6,7-hexahydro-s-indacen-4-yl)carbamoyl)-1-isopropyl-1H-pyrazole-3-sulfonamide]
- pIC50 (NLRP3 [1]): > 6.60
- pIC50 (NLRP3 [2]): 6.00 to 6.30

SMILES: CC(C)n1nncc1S(=O)(=O)NC(=O)Nc1c2c(cc3c1CCC3)CCC2 [Example 47, N-((1,2,3,5,6,7-Hexahydro-s-indacen-4-yl)carbamoyl)-1-isopropyl-1H-1,2,3-triazole-5-sulfonamide]
- pIC50 (NLRP3 [1]): > 6.60
- pIC50 (NLRP3 [2]): 5.30 to 6.00

SMILES: O=C(Nc1c2c(cc3c1CCC3)CCC2)NS(=O)(=O)c1cnn(CC(F)(F)F)c1 [Example 41, N-((1,2,3,5,6,7-Hexahydro-s-indacen-4-yl)carbamoyl)-1-(2,2,2-trifluoroethyl)-1H-pyrazole-4-sulfonamide, sodium salt]
- pIC50 (NLRP3 [1]): 6.30 to 6.60
- pIC50 (NLRP3 [2]): 5.00 to 5.30

SMILES: CC(O)c1cc(S(=O)(=O)NC(=O)Nc2c3c(cc4c2CCC4)CCC3)nn1C(C)C (stereo not shown) [Example 54, N-((1,2,3,5,6,7-Hexahydro-s-indacen-4-yl)carbamoyl)-5-(1-hydroxyethyl)-1-isopropyl-1H-pyrazole-3-sulfonamide]
- pIC50 (NLRP3 [1]): > 6.60
- pIC50 (NLRP3 [2]): 6.00 to 6.30

SMILES: NC/C(=C\F)COc1ccc(S(=O)(=O)NC(=O)Nc2c3c(cc4c2CCC4)CCC3)cc1 [Example 17, 4-((2-(Aminomethyl)-3-fluoroallyl)oxy)-N-((1,2,3,5,6,7-hexahydro-s-indacen-4-yl)carbamoyl)benzenesulfonamide, 2,2,2-trifluoroacetate salt]
- pIC50 (NLRP3 [1]): 6.30 to 6.60
- pIC50 (NLRP3 [2]): 5.30 to 6.00

SMILES: Cn1nc(S(=O)(=O)NC(=O)Nc2c3c(cc4c2CCC4)CCC3)cc1CO [Example 84, N-((1,2,3,5,6,7-Hexahydro-s-indacen-4-yl)carbamoyl)-5-(hydroxymethyl)-1-methyl-1H-pyrazole-3-sulfonamide]
- pIC50 (NLRP3 [1]): 6.30 to 6.60
- pIC50 (NLRP3 [2]): 6.00 to 6.30

SMILES: COC(C)(C)c1cc(S(=O)(=O)NC(=O)Nc2c(C(C)C)cc(F)cc2C(C)C)nn1C [Example 82, N-((4-Fluoro-2,6-diisopropylphenyl)carbamoyl)-5-(2-methoxypropan-2-yl)-1-methyl-1H-pyrazole-3-sulfonamide]
- pIC50 (NLRP3 [1]): 6.30 to 6.60
- pIC50 (NLRP3 [2]): 6.00 to 6.30
